# Columns and labels:
# Assay in all cases: Test A preemergence
# Conditions in all cases: 1000 g ai/ha, 0 to 100 scale (0 no effect, 100 complete control), 10 days
# barnyardgrass = format: in vivo, Echinochloa crusgalli
# Method in brief: (§1)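 Visual injury ratings on a 0–100 scale (100 = complete control) versus untreated controls, taken 10 days after treatment in greenhouse. Preemergence: directed soil spray onto seeded loam/sand. Postemergence: foliar application at one- to two-leaf stage, plants 2–10 cm. Formulation: non-phytotoxic solvent plus surfactant.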
# ryegrass, Italian = format: in vivo, Lolium multiflorum
# Method in brief: as §1
# kochia = format: in vivo, Bassia scoparia
# Method in brief: as §1
# Pigweed, Redroot = format: in vivo, Amaranthus retroflexus
# From the text: Seeds of plant species selected from barnyardgrass (Echinochloa crusgalli), blackgrass (Alopecurus myosuroides), corn (Zea mays), foxtail, giant (giant foxtail, Setaria faberi), goosegrass (Eleusine indica), kochia (Bassia scoparia), oat, wild (wild oat, Avena fatua), pigweed, palmer (palmer amaranth, palmer pigweed, Amaranthus palmeri), Pigweed, Redroot (redroot pigweed, Amaranthus retroflexus), ragweed (common ragweed, Ambrosia artemisiifolia), ryegrass, Italian (italian ryegrass, Lolium multiflorum), soybean (Glycine max), and wheat (Triticum aestivum) were planted into a blend of loam soil and sand and treated preemergence with a directed soil spray using test chemicals formulated in a non-phytotoxic solvent mixture which included a surfactant. At the same time, plants selected from these crops and weed species and also galium (catchweed bedstraw, Galium aparine) and horseweed (Erigeron canadensis) were planted in pots containing the same blend of loam soil and sand and treated with postemergence applications of test chemicals formulated in the same manner. Plants ranged in height from 2 to 10 cm and were in the one- to two-leaf stage for the postemergence treatment. Treated plants and untreated controls were maintained in a greenhouse for 10 days, after which time all treated plants were compared to untreated controls and visually evaluated for injury. Plant response ratings, summarized in Table A, are based on a 0 to 100 scale where 0 is no effect and 100 is complete control. A dash (-) response means no test result.
# ragweed = format: in vivo, Ambrosia artemisiifolia
# Method in brief: as §1
# foxtail, giant = format: in vivo, Setaria faberi
# Method in brief: as §1
smiles,measurement,setting,value
CCC1CN(C(=O)c2ccnc(-n3cncn3)c2)c2cccc(C)c2O1 (stereo not drawn) [Compound 11],"Plant response rating, Barnyardgrass",barnyardgrass,30
same,"Plant response rating, Ryegrass, Italian","ryegrass, Italian",50
same,"Plant response rating, Kochia",kochia,0
same,"Plant response rating, Pigweed, Redroot","Pigweed, Redroot",90
same,"Plant response rating, Ragweed",ragweed,0
same,"Plant response rating, Foxtail, Giant","foxtail, giant",100

# Source: patent US20260262643A1, “HERBICIDAL BENZOXAZINES” (FMC CORPORATION, priority 2022, published 2026)
